Measured values reported in US20210017607A1, “Methods of Predicting Responsiveness to Cancer Therapies” (The University of Chicago, priority 2019, published 2021).

Tested on: B6-Myc (STING^hi) cells
Test: p-γH2AX foci (DNA DSBs) by confocal microscopy
Format: cell-based, mouse
Conditions: 36 hours; rucaparib 500 nM, buparlisib 1 μM
Protocol: FIGS. 17A-17C. PARPi/PI3Ki combination induces intracellular DNA DSBs, and proportionate release of MV surface-associated DNA DSBs from B6-Myc (STING^hi) cancer cells, without affecting cellular viability. B6-Myc (STING^hi) cells were treated with indicated drugs singly or in combination for 36 hours. (17A) Cells were stained with anti-mouse specific p-γH2AX antibody and fluorescently labeled secondary antibody for determination of DNA DSBs, which were quantified by confocal microscopy. (17B) Protein extracts from cells in (17A) were analyzed for the indicated pharmacodynamic biomarkers by western blotting. […] Significance/p-values were calculated by one-way ANOVA.
Confocal Microscopy. […] Staining for DNA DSBs was done with anti-mouse primary antibody specific for phospho-γH2AX (1:500 dilution, Cell Signaling Technology and secondary anti-rabbit IgG antibody conjugated to AF647 (1:1000-1:2000 dilution in 1×PBS, Thermo Fisher Scientific®). Anti-mouse specific β-actin conjugated to Phycoerythrin (PE, Thermo Fisher Scientific®) was used to stain the cytoskeleton. All staining procedures were done at 4° C. for 30 minutes. Cells were then washed 3 times with 1×PBS and imaged immediately. All images were collected using an Olympus Fluoview® 1000 using a 100× oil objective. Acquired images were analyzed by ImageJ software, developed at NIH.

CNCc1ccc(-c2[nH]c3cc(F)cc4c3c2CCNC4=O)cc1 [rucaparib]
DNA double-strand breaks (p-γH2AX foci): did not show a statistically significant increase
